US8889878B2, “Haloalky-substituted amides as insecticides and acaricides” (Bayer CropScience AG, priority 2009, dated 2014)

Assays:
[1] = logP by HPLC on reverse-phase column (EEC Directive 79/831 Annex V.A8); format: physicochemical
Experimental: The logP values reported in the above Tables and Preparation Examples were determined according to EEC Directive 79/831 Annex V.A8 by HPLC (High Performance Liquid Chromatography) on a reverse-phase column (C18). Temperature 43° C.

[2] = tested on: green peach aphid (Myzus persicae); assay: Myzus test (MYZUPE spray treatment), Example 17; format: in vivo; details: china cabbage leaf discs sprayed, after 6 days
Experimental: Myzus Test (MYZUPE Spray Treatment)
• Solvent: 78 parts by weight of acetone • 1.5 parts by weight of dimethylformamide • Emulsifier: 0.5 part by weight of alkylaryl polyglycol ether
To prepare an appropriate active ingredient formulation, 1 part by weight of active ingredient is mixed with the stated amounts of solvent and emulsifier, and the concentrate is diluted with emulsifier-containing water to the desired concentration. Leaf discs from china cabbage (Brassica pekinensis) infested by all stages of the green peach aphid (Myzus persicae) are sprayed with an active ingredient formulation of the desired concentration.
After 6 days, the efficacy in % is determined. 100% means that all aphids were killed; 0% means that no aphids were killed.

[3] = tested on: armyworm (Spodoptera frugiperda); assay: Spodoptera frugiperda test (SPODFR spray treatment), Example 15; format: in vivo; details: application rate 100 g/ha, maize leaf discs sprayed, after 7 days
Summary of the method: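 Maize leaf discs sprayed with active ingredient in acetone/DMF with alkylaryl polyglycol ether emulsifier, diluted in water, then populated with caterpillars after drying. Efficacy in % after 7 days: 100% all caterpillars killed, 0% none.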

[4] = tested on: mustard beetle (Phaedon cochleariae); assay: Phaedon test (PHAECO spray treatment), Example 7; format: in vivo; details: application rate 20 g/ha, china cabbage leaf discs sprayed, after 7 days
Experimental: Phaedon Test (PHAECO Spray Treatment)
• Solvent: 78.0 parts by weight of acetone • 1.5 parts by weight of dimethylformamide • Emulsifier: 0.5 part by weight of alkylaryl polyglycol ether
To prepare an active ingredient formulation, 1 part by weight of active ingredient is mixed with the stated amounts of solvent and emulsifier, and the concentrate is diluted with emulsifier-containing water to the desired concentration. Leaf discs from china cabbage (Brassica pekinensis) are sprayed with an active ingredient formulation of the desired concentration and, after drying, populated with larvae of the mustard beetle (Phaedon cochleariae).
After 7 days, the efficacy in % is determined. 100% means that all beetle larvae were killed; 0% means that no beetle larvae were killed.

[5] = HPLC-MS, HPLC on reverse-phase column
[6] = HPLC, C18 reverse phase, 43° C., acidic range pH 2.7, calibration with alkan-2-ones

| Structure (SMILES) | logP ([1]; HPLC-MS) | efficacy in % ([2]; application rate 100 g/ha) | efficacy in % [3] | logP [1, 5] | logP [1, 6] | efficacy in % ([2]; application rate 500 g/ha) | efficacy in % [4] |
| --- | --- | --- | --- | --- | --- | --- | --- |
| CC(C)NC(=O)c1ccc(/C=C/C(=O)NC(c2cccc(C(F)(F)F)c2)C(F)(F)F)cc1Br (stereo not shown) [Ia-174] | HPLC-MS: logP = 3.48; mass | 100% | – | – | – | – | – |
| O=C(/C=C/c1ccc(C(=O)NC(CF)CF)c(Br)c1)NC(c1cccc(C(F)(F)F)c1)C(F)(F)F (stereo not shown) [Ia-175] | HPLC-MS: logP = 3.35; mass | 100% | 83% | – | – | – | – |
| O=C(/C=C/c1ccc(C(=O)NC2CCC2)c(Br)c1)NC(c1cccc(C(F)(F)F)c1)C(F)(F)F (stereo not shown) [Ia-179] | HPLC-MS: logP = 3.61; mass | 90% | 83% | – | – | – | – |
| O=C(/C=C/c1ccc(C(=O)NCC2CC2)c(Br)c1)NC(c1cccc(C(F)(F)F)c1)C(F)(F)F (stereo not shown) [Ia-180] | HPLC-MS: logP = 3.55; mass | 90% | – | – | – | – | – |
| O=C(/C=C/c1ccc(C(=O)Nc2ccncn2)c(Cl)c1)NC(c1cccc(C(F)(F)F)c1)C(F)(F)F (stereo not shown) [Ia-184] | HPLC-MS: logP = 3.22; mass | 100% | – | – | – | – | – |
| CN(C(=O)c1ccc(/C=C/C(=O)NC(c2cccc(C(F)(F)F)c2)C(F)(F)F)cc1C(F)(F)F)c1ccccn1 (stereo not shown) [Ia-239] | HPLC-MS: logP = 2.07; mass | 90% | 100% | – | – | – | – |
| CCC(=O)NCc1ccc(/C=C/C(=O)NC(c2ccc(F)c(Cl)c2)C(F)(F)F)cc1C(F)(F)F (stereo not shown) [Ia-251] | HPLC-MS: logP = 3.47; mass | 80% | 100% | – | – | – | – |
| CC(=O)N(Cc1ccccn1)Cc1ccc(/C=C/C(=O)NC(c2cccc(C(F)(F)F)c2)C(F)(F)F)cc1F (stereo not shown) [Ia-252] | HPLC-MS: logP = 2.72; mass | 100% | 100% | – | – | – | – |
| CC(=O)N(Cc1ccc(/C=C/C(=O)NC(c2cccc(C(F)(F)F)c2)C(F)(F)F)cc1)Cc1ccccn1 (stereo not shown) [Ia-254] | HPLC-MS: logP = 2.65; mass | 80% | – | – | – | – | – |
| O=C(/C=C/c1ccc(C(=O)NC2CC2)c(C(F)(F)F)c1)NC(c1cccc(SC(F)(F)F)c1)C(F)(F)F (stereo not shown) [Ia-256] | HPLC-MS: logP = 3.51; mass | 100% | 100% | – | – | – | – |
| CCC(=O)NCc1ccc(/C=C/C(=O)NC(c2cccc(C(F)(F)F)c2)C(F)(F)F)cc1F (stereo not shown) [Ia-276] | – | 100% | 100% | HPLC-MS: logP = 3.12; mass | – | – | – |
| CCC(=O)NCc1ccc(/C=C/C(=O)NC(c2ccc(F)c(Cl)c2)C(F)(F)F)cc1F (stereo not shown) [Ia-277] | – | 100% | 100% | HPLC-MS: logP = 3.06; mass | – | – | – |
| O=C(/C=C/c1ccc(C(=O)NC2CC2)c(C(F)(F)F)c1)NC(c1ccc(F)c(Cl)c1)C(F)(F)F (stereo not shown) [Ia-279] | – | 100% | 100% | HPLC-MS: logP = 3.33; mass | – | – | – |
| O=C(/C=C/c1ccc(C(=O)NC2CC2)c(C(F)(F)F)c1)NC(c1ccc(F)c(C(F)(F)F)c1)C(F)(F)F (stereo not shown) [Ia-280] | – | 100% | 100% | HPLC-MS: logP = 3.46; mass | – | – | – |
| CCC(=O)NCc1ccc(/C=C/C(=O)NC(c2ccc(F)c(C(F)(F)F)c2)C(F)(F)F)cc1 (stereo not shown) [Ia-282] | – | 90% | 100% | HPLC-MS: logP = 3.11; mass | – | – | – |
| O=C(NCc1ccc2oc(C(=O)NC(c3cccc(C(F)(F)F)c3)C(F)(F)F)cc2c1)c1ccccn1 (stereo not shown) [Ic-12] | – | – | – | – | HPLC-MS: logP = 3.62; mass | 80% | – |
| O=C(NC(c1cc(Cl)cc(C(F)(F)F)c1)C(F)(F)F)c1cc2cc(Cl)c(C(=O)NC3CC3)cc2[nH]1 (stereo not shown) [Ic-20] | – | – | – | – | HPLC-MS: logP = 3.47; mass | – | 100% |
| O=C(NC(c1ccc(Cl)c(Cl)c1)C(F)(F)F)c1cc2cc(Cl)c(C(=O)NC3CC3)cc2[nH]1 (stereo not shown) [Ic-21] | – | – | – | – | HPLC-MS: logP = 3.28; mass | – | 100% |
| C/C(=C\C(=O)NC(c1cccc(C(F)(F)F)c1)C(F)(F)F)c1ccc(C(=O)NC(C)C)c(C(F)(F)F)c1 (stereo not shown) [Id-4] | – | 90% | – | – | HPLC-MS: logP = 3.75; mass | – | – |
